{"source": "patent US20070218475A1", "about": "“Efficient drug screening for protein targets” (priority 2005, published 2007)", "key": {"[1]": {"target": "T1, SmoΔCRD (Mus musculus, UniProt P56726, DEL68-182)", "T1 construct": "expressed in transfected cells; host or cells: Cos-1", "T1 sequence (P56726 with tags, fused parts or gaps DEL68-182)": "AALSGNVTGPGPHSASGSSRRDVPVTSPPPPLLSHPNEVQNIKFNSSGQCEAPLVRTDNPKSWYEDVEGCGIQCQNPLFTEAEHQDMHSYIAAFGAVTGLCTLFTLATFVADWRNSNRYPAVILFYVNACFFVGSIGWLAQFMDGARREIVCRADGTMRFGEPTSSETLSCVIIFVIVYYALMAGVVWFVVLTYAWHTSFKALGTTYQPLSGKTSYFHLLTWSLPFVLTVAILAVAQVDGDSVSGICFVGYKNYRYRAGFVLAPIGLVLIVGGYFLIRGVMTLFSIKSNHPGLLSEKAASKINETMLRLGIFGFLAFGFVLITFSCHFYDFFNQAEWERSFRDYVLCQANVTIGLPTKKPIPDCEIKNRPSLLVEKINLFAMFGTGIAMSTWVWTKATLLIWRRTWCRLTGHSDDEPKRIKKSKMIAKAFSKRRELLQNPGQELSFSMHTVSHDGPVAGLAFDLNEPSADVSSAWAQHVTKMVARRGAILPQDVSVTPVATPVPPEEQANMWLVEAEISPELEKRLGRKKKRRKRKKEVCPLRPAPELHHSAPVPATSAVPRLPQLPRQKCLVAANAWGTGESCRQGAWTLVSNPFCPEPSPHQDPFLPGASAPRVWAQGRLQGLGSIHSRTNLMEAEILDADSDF", "assay": "Fluorescence (BODIPY-cyclopamine) binding assay, Cos-1 cells expressing SmoΔCRD", "conditions": "Cos-1 cells, flow cytometry", "excerpt": "(§1) Preparation of Smo fusion proteins and deletion mutants: Both Smo-Myc3 and SmoA1-Myc3 are C-terminally fused to three consecutive Myc epitopes. […] Smo-GFP is comprised of green fluorescent protein fused to the C-terminus of Smo, and the fluorescent proteins in SmoA1-YFP, and SmoA1-GFP are similarly fused to the C-terminus of SmoA1. All constructs were generated by PCR and verified by DNA sequencing.\n(§2) For flow cytometry experiments, the cells were then trypsinized, collected by centrifugation, resuspended in phenol red-free DMEM containing 0.5% bovine calf serum, and analyzed for green fluorescence (FACScan, Beckton Dickinson). […] Curve fitting analysis was performed with Kaleidograph (Synergy Software)."}, "[2]": {"target": "Shh signaling", "assay": "Shh-LIGHT2 assay for Hh pathway activation (Gli-dependent luciferase reporter)", "assay_type": "cell-based, mouse", "conditions": "Shh-LIGHT2 mouse cultured cell assay; read-out: IC50, inhibition of Shh signaling"}, "[3]": {"target": "T2, SmoΔCT (Mus musculus, UniProt P56726)", "T2 construct": "expressed in transfected cells; host or cells: Cos-1", "T2 sequence (P56726 33-555 limits assumed)": "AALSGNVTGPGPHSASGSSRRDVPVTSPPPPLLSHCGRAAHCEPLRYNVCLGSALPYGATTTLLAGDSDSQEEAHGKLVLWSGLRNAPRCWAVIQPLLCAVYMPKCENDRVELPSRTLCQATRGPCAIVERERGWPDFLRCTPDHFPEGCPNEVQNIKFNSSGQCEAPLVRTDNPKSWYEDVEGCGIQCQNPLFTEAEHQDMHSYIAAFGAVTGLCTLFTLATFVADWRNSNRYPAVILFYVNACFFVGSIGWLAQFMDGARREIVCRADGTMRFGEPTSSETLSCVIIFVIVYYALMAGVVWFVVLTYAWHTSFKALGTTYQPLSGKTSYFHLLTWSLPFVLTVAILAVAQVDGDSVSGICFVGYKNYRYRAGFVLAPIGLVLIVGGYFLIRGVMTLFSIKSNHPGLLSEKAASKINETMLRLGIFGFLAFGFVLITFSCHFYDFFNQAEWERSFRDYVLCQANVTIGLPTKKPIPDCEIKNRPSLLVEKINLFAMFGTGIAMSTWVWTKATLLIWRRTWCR", "assay": "Fluorescence (BODIPY-cyclopamine) binding assay, Cos-1 cells expressing SmoΔCT", "conditions": "Cos-1 cells, flow cytometry", "excerpt": "as §1, §2"}, "[4]": {"target": "T3, Smo (Mus musculus, UniProt P56726)", "T3 construct": "expressed in transfected cells; host or cells: Cos-1", "T3 sequence (P56726 33-793)": "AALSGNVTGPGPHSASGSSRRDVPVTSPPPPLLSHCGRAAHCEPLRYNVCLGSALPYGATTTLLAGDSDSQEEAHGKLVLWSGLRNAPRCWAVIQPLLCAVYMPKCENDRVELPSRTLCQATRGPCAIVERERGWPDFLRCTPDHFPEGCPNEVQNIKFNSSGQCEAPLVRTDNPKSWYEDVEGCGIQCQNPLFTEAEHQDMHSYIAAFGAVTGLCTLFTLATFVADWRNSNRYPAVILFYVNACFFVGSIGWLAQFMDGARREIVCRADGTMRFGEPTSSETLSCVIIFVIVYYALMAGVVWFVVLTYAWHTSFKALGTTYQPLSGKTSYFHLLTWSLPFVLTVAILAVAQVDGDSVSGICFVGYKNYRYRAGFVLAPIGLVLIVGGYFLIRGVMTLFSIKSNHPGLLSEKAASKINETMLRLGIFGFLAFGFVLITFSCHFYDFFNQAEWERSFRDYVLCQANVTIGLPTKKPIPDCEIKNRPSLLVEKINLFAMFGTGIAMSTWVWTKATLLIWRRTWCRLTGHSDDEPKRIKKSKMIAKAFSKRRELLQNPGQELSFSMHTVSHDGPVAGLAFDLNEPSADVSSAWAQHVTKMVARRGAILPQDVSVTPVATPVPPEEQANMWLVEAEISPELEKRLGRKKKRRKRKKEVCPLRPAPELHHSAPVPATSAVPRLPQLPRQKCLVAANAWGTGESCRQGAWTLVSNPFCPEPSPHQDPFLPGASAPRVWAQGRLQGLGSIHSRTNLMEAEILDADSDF", "assay": "Fluorescence (BODIPY-cyclopamine) binding assay, Smo-expressing Cos-1 cells", "conditions": "Cos-1 cells transiently transfected, fluorescence microscopy and flow cytometry", "procedure": "as §2"}}, "data": [{"compound": "CC1=C2CC3C(CC=C4C[C@@H](O)CCC43C)C2CCC12O[C@@H]1CC(C)CN(CCNC(=O)CCCCCNC(=O)CCC3=[N+]4C(=Cc5c(C)cc(C)n5[B-]4(F)F)C=C3)C1C2C", "note": "(stereo partly shown) [BODIPY-cyclopamine]", "values": [{"measurement": "binding to cells expressing SmoΔCRD", "setting": "[1]", "result": "can bind"}, {"measurement": "IC50", "setting": "[2]", "result": 150, "unit": "nM"}, {"measurement": "binding to cells expressing SmoΔCT", "setting": "[3]", "result": "can bind"}, {"measurement": "binding to Smo-expressing cells", "setting": "[4]", "result": "bound with high capacity"}]}]}
